Where two headings read alike, the source gives them in different places.
Assays:
Assay type in all cases: in vivo
[1] = tested on: housefly adults (Musca domestica); assay: Oil spray in (70 cm)^3 glass chamber, housefly adults, KT50 and mortality (Experimental Example 2); conditions: for mortality at 0.1 %: Musca domestica
Procedure: (§1) 0.1 Part of each of the present compounds was dissolved in kerosene and made up to 100 parts with kerosene. Thus, the oil spray of each compound was obtained. Ten northern house mosquito female adults (Culex pipiens pallens) and 10 housefly adults (Musca domestica) were liberated in a (70 cm)^3 glass chamber. 0.7 ml of the oil spray was applied and the number of knocked down insects was counted with the lapse of time. The value of KT50 was obtained from the mean knock-down ratio of three replications according to Finney's graphic method. After 10 minutes, the knocked down insects were collected and transferred to a recovery container and fed with a 5% sugar solution. After 24 hours, the dead and alive were examined.

[2] = tested on: housefly female adults (Musca domestica); assay: Housefly female adults on treated filter paper in polyethylene cup, mortality after 48 hours (Experimental Example 1)
Procedure: Ten percent emulsifiable concentrates were prepared as in the Preparation example 3.
At the bottom of a polyethylene cup of 5.5 cm in diameter was placed a filter paper of the same size. 0.75 Ml of a 200-fold aqueous dilute solution of each emulsifiable concentrate (corresponding to 500 ppm) was dropped on the filter paper, and 30 mg of sucrose as a food was uniformly placed. Ten housefly female adults (Musca domestica) were liberated in the cup which was then covered with a lid. After 48 hours, the dead and alive were examined to obtain mortality (4 replications).

[3] = tested on: northern house mosquito female adults (Culex pipiens pallens); assay: Oil spray in (70 cm)^3 glass chamber, northern house mosquito female adults, KT50 and mortality (Experimental Example 2); conditions: for mortality at 0.1 %: Culex pipiens
Procedure: as §1

[4] = tested on: adult German cockroaches (Blattella germanica); assay: Flushing out of German cockroaches from shelter (Experimental Example 8); conditions: 0.7 ml of 0.1% oil spray
Procedure: Ten adult German cockroaches (Blattella germanica) were liberated in a plywood-made trigonal prism like shelter with diet and water. The shelter containing cockroaches was made stand opening upward in a glass chamber (70 cm)^3, and 0.7 ml of 0.1% oil spray of each compound was applied to the chamber. The number of flushed out insects was counted with the lapse of time.

[5] = tested on: northern house mosquito female adults (Culex pipiens pallens); assay: Oil spray in (70 cm)^3 glass chamber, knock down of mosquitoes at 10 minutes (Experimental Example 3); conditions: oil sprays of Preparation example 1 (0.2 part in 100), 0.7 ml, 10 minutes after spraying, read-out: KD%
Text: Ten northern house mosquito female adults (Culex pipiens pallens) were liberated in a (70 cm)^3 glass chamber.

[6] = housefly adult, 0.1% oil spray, 0.7 ml
[7] = northern house mosquito female adult, 0.1% oil spray, 0.7 ml
[8] = 200-fold aqueous dilution of emulsifiable concentrate (500 ppm), 48 hours, housefly female adults, read-out: Mortality

SMILES | mortality at 0.1 % ([1]; 24 h) [%] | KT50 [1, 6] [s] | mortality at 500 µg/mL ([2]; 48 h) [%] | mortality at 0.1 % ([3]; 24 h) [%] | KT50 [3, 7] [s] | pest or weed control at 0.2 % [5] [%] | other results
C#CCN1C(=O)CN(COC(=O)C2C(C=C(Cl)Cl)C2(C)C)C1=O (stereo not shown) [Present compound (4), 3-Propargyl-1-hydantoinylmethyl 2,2-dimethyl-3-(2,2-dichlorovinyl)cyclopropanecarboxylate] | 30 | 280 | 100 | 85 | 50 | – | –
CNC(=O)Oc1ccccc1OC(C)C [Propoxur, reference compound] | – | – | – | – | – | – | Flushing out ([4]; 38"): 0%; Flushing out ([4]; 75"): 0%; Flushing out ([4]; 150"): 0%; Flushing out ([4]; 300"): 0%; Flushing out ([4]; 600"): 5%
C#CCN1CC(=O)N(COC(=O)[C@@H]2[C@@H](C=C(C)C)C2(C)C)C1=O [Present compound (7), 1-Propargyl-3-hydantoinylmethyl chrysanthemate] | 10 | 72 | 100 | 100 | 30 | – | –
C=CCN1C(=O)CN(COC(=O)C2C(C=C(Cl)Cl)C2(C)C)C1=O (stereo not shown) [Present compound (5), 3-Allyl-1-hydantoinylmethyl 2,2-dimethyl-3-(2,2-dichlorovinyl)-cyclopropanecarboxylate] | – | – | 100 | – | – | 100 | –
C=CCN1CC(=O)N(COC(=O)C(c2ccc(Br)cc2)C(C)C)C1=O (stereo not drawn) [Present compound (18), 1-Allyl-3-hydantoinylmethyl α-(4-bromophenyl)isovalerate] | – | – | – | – | – | 90 | mortality at 500 µg/mL [2, 8]: 100%
C#CCN1C(=O)N(COC(=O)C2C(C=C(Cl)Cl)C2(C)C)C(=O)C1CC (stereo not shown) [Present compound (24), 1-Propargyl-5-ethyl-3-hydantoinylmethyl 2,2-dimethyl-3-(2,2-dichlorovinyl)cyclopropanecarboxylate] | – | – | – | – | – | 85 | –
C#CCN1CC(=O)N(COC(=O)[C@@H]2[C@@H](C=C(Cl)Cl)C2(C)C)C1=O [Present compound (1) (d-trans isomer), 1-Propargyl-3-hydantoinylmethyl 2,2-dimethyl-3-(2,2-dichlorovinyl)cyclopropanecarboxylate] | 80 | 60 | 100 | 100 | 30 | – | –
C#CCN1C(=O)N(COC(=O)C2C(C=C(Cl)Cl)C2(C)C)C(=O)C1C (stereo not shown) [Present compound (22), 1-Propargyl-5-methyl-3-hydantoinylmethyl 2,2-dimethyl-3-(2,2-dichlorovinyl)cyclopropanecarboxylate] | 20 | 114 | – | 85 | 75 | – | –
CCCN1CC(=O)N(COC(=O)C2C(C=C(Cl)Cl)C2(C)C)C1=O (stereo not shown) [Present compound (3), 1-Propyl-3-hydantoinylmethyl 2,2-dimethyl-3-(2,2-dichlorovinyl)cyclopropanecarboxylate] | – | – | – | – | – | 100 | Flushing out ([4]; 38"): 30%; Flushing out ([4]; 75"): 45%; Flushing out ([4]; 150"): 45%; Flushing out ([4]; 300"): 50%; Flushing out ([4]; 600"): 65%
C#CCN1CC(=O)N(COC(=O)[C@@H]2[C@@H](C=NOC)C2(C)C)C1=O [Present compound (12), 1-Propargyl-3-hydantoinylmethyl 2,2-dimethyl-3-methoxyiminomethylcyclopropanecarboxylate] | – | – | – | – | – | 100 | –
C#CCN1CC(=O)N(COC(=O)C(c2ccc(OC)cc2)C(C)C)C1=O (stereo not drawn) [Present compound (17), 1-Propargyl-3-hydantoinylmethyl α-(4-methoxyphenyl)isovalerate] | – | 280 | – | – | 140 | – | mortality at 0.1 % ([1]; housefly adult, 0.1% oil spray, 0.7 ml, after 24 hours, read-out: Mortality): 35%; mortality at 500 µg/mL [2, 8]: 95%; mortality at 0.1 % ([3]; northern house mosquito female adult, 0.1% oil spray, 0.7 ml, after 24 hours, read-out: Mortality): 75%
C#CCN1CC(=O)N(COC(=O)[C@@H]2[C@@H](C=C(Br)Br)C2(C)C)C1=O [Present compound (11) (d-trans isomer), 1-Propargyl-3-hydantoinylmethyl 2,2-dimethyl-3-(2,2-dibromovinyl)cyclopropanecarboxylate] | 30 | 78 | 100 | 85 | 35 | – | –
CC(C)=CC1C(C(=O)OCc2coc(Cc3ccccc3)c2)C1(C)C (stereo not shown) [Resmethrin, 5-benzyl-3-furylmethyl chrysanthemate, reference compound] | – | – | – | – | – | 50 | –
C#CCN1CC(=O)N(COC(=O)C(c2ccc(Cl)c(Cl)c2)C(C)C)C1=O (stereo not drawn) [Present compound (19), 1-Propargyl-3-hydantoinylmethyl α-(3,4-dichlorophenyl)isovalerate] | – | – | – | – | – | 85 | –
C#CCN1CC(=O)N(COC(=O)C2C(C=C(Cl)Cl)C2(C)C)C1=O (racemic) [Present compound (1) (dl-cis,trans isomer), 1-Propargyl-3-hydantoinylmethyl 2,2-dimethyl-3-(2,2-dichlorovinyl)cyclopropanecarboxylate] | 60 | 96 | 100 | 90 | 69 | – | Flushing out ([4]; 38"): 35%; Flushing out ([4]; 75"): 65%; Flushing out ([4]; 150"): 75%; Flushing out ([4]; 300"): 85%; Flushing out ([4]; 600"): 95%
C#CCN1C(=O)CN(COC(=O)C(c2ccc(F)cc2)C(C)C)C1=O (stereo not drawn) [Present compound (21), 3-Propargyl-1-hydantoinylmethyl α-(4-fluorophenyl)isovalerate] | – | – | – | – | – | 90 | mortality at 500 µg/mL [2, 8]: 90%
C#CCN1CC(=O)N(COC(=O)[C@@H]2[C@H](C=C(Br)Br)C2(C)C)C1=O [Present compound (11) (d-cis isomer), 1-Propargyl-3-hydantoinylmethyl 2,2-dimethyl-3-(2,2-dibromovinyl)cyclopropanecarboxylate] | 10 | 96 | 100 | 95 | 38 | – | –
C#CCN1CC(=O)N(COC(=O)[C@@H]2[C@@H](C=C(C)C=C)C2(C)C)C1=O (relative stereo) [Present compound (10), 1-Propargyl-3-hydantoinylmethyl 2,2-dimethyl-3-(2-methylbutadienyl)cyclopropanecarboxylate] | – | – | 95 | – | – | 90 | –
C#CCN1C(=O)N(COC(=O)C2C(C=C(C)C)C2(C)C)C(=O)C1C (stereo not shown) [Present compound (23), 1-Propargyl-5-methyl-3-hydantoinylmethyl chrysanthemate] | – | – | – | – | – | 100 | –
C#CCN1CC(=O)N(COC(=O)C(c2ccc3c(c2)OCO3)C(C)C)C1=O (stereo not drawn) [Present compound (16), 1-Propargyl-3-hydantoinylmethyl α-(3,4-methylenedioxyphenyl)isovalerate] | – | – | – | – | – | 100 | mortality at 500 µg/mL [2, 8]: 90%
CC(C)=CC1C(C(=O)OCN2C(=O)C3=C(CCCC3)C2=O)C1(C)C (stereo not shown) [Tetramethrin, N-(chrysanthemoxymethyl)-3,4,5,6-tetrahydrophthalimide, reference compound] | 20 | 372 | – | 45 | 162 | – | –
C#CCN1CC(=O)N(COC(=O)C(c2ccc(C)cc2)C(C)C)C1=O (stereo not drawn) [Present compound (15), 1-Propargyl-3-hydantoinylmethyl α-(4-methylphenyl)isovalerate] | – | – | – | – | – | 90 | mortality at 500 µg/mL [2, 8]: 90%
C=CCN1CC(=O)N(COC(=O)C(c2ccc(Cl)cc2)C(C)C)C1=O (stereo not drawn) [Present compound (20), 1-Allyl-3-hydantoinylmethyl α-(4-chlorophenyl)isovalerate] | – | – | – | – | – | 85 | –
C#CCN1CC(=O)N(COC(=O)C(c2cccc(Cl)c2)C(C)C)C1=O (stereo not drawn) [Present compound (14), 1-Propargyl-3-hydantoinylmethyl α-(3-chlorophenyl)isovalerate] | – | – | – | – | – | 85 | mortality at 500 µg/mL [2, 8]: 100%

Reference: patent US4176189A, “Insecticidal and acaricidal hydantoin N-methylol esters” (Sumitomo Chemical Company, Limited, priority 1977, dated 1979)
